Literature values as cited in patent publication US20240050531A1, “A METHOD FOR REVERSING AGING BRAIN FUNCTIONAL DECLINE” (THE CHINESE UNIVERSITY OF HONG KONG, priority 2020, published 2024).
Like-named read-outs stand apart in the source and are kept apart here.

Key:
[1] = intraperitoneal (i.p.) injection
GLP-1R = biological target: T1, GLP-1R (Rattus norvegicus, UniProt P32301)
T1 construct: host or cells: living rats (8 weeks old), endogenous receptor
T1 sequence (P32301 22-463): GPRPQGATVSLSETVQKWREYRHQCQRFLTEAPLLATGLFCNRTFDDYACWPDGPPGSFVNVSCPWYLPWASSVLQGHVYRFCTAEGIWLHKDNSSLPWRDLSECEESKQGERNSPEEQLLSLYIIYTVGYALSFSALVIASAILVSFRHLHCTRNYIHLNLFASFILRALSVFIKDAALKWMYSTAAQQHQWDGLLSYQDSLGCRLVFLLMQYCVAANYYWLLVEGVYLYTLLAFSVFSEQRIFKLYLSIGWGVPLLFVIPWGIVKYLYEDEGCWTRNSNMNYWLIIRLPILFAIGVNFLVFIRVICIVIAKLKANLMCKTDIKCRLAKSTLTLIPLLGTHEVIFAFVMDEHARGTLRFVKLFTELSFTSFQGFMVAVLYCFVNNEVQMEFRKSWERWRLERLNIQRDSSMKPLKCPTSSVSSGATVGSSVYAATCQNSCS

associative and spatial learning (GLP-1R; intracerebroventricular (i.c.v) administration, 8 weeks old rats)	associative and spatial learning (GLP-1R; peripheral administration)	Substance	hippocampus-associated reference memory performance [1]	immobility in the forced swim test [1]
		exendin-4	improves	decreases immobility
enhance associative and spatial learning	also active	[Ser(2)]exendin(1-9)		
